Laboratory results reported in patent publication US20190255040A1, “COMPOSITION AND METHOD FOR TOPICAL JS-K AS THERAPY FOR ACTINIC KERATOSIS” (JSK THERAPEUTICS, INC, priority 2018, published 2019).

Assays:
[1] = system: UV-induced skin damage in SKH1 mice; test: Animal efficacy for UV damage: UVB-exposed SKH1 mice, topical treatment, skin histology; type: in vivo
Experimental: Eight week-old female SKH1 mice were used. There were 5 mice in the control (no treatment, no UV) group and 10 mice in each treatment group. Treated mice all received one exposure of 600 Joules/m2 of UVB.
Immediately after UVB treatment, mice in each group were treated as follows: 200 uL of acetone only; JS-K at a concentration of 12 mg/mL in 200 uL of acetone; JS-K at a concentration of 6 mg/mL in 200 uL of acetone. Treatments were started immediately after UVB exposure and given twice (8 hours apart) on Day 1 and Day 2. On Day 3, mice were sacrificed and skin collected for histologic analysis.
H&E staining was used (FIG. 2A) to evaluate the count of Sunburn Cells, which are keratinocytes undergoing UV-induced apoptosis. […] The differences with controls were statistically significant for the higher dose of JS-K (12 mg/mL).
8-OG is a marker of oxydative damage.

[2] = system: human squamous skin carcinoma Cells (HatCat cells); test: Suppression of the growth in culture of human squamous skin carcinoma cells; type: cell-based; details: growth over a two-day period (FIG. 1), read-out: IC50 for suppressing growth of human squamous skin carcinoma cells
Experimental: FIG. 1 is a scatter plot illustrating the growth of human squamous skin carcinoma cells (HatCat 5K-Cells [10 μM]) over a two-day period;
Referring to FIG. 1, JS-K at 12 mg/mL in […] of acetone was active in suppressing the growth in culture of human squamous skin carcinoma Cells (HatCat cells) with IC50 concentrations <1000 nM, compared to no effect from dimethylsulfoxide (DMSO) or P1223 pluronic micellesAfd.

CCOC(=O)N1CCN(/[N+]([O-])=N/Oc2ccc([N+](=O)[O-])cc2[N+](=O)[O-])CC1 [JS-K, O2-(2,4-dinitrophenyl)1-[(4-ethoxycarbonyl)piperazin-1-yI]diazen-1-ium-1,2-diolate]
count of Sunburn Cells (keratinocytes undergoing UV-induced apoptosis), H&E staining ([1]; 600 Joules/m2 UVB, JS-K 6 or 12 mg/mL in 200 uL acetone topically twice daily Day 1-2, skin Day 3, significant only for 12 mg/mL): moderate decrease in the number of Sunburn Cells with a dose effect
percent of cells positive for 8-oxoguanine (8-OG), immunohistochemistry ([1]; 600 Joules/m2 UVB, JS-K 6 or 12 mg/mL in 200 uL acetone twice daily Day 1-2, dose effect, significant for both doses): fewer cells from the mice treated with JS-K were positive for 8-OG
epidermal thickness of UV-exposed skin ([1]; 600 Joules/m2 UVB, JS-K 6 or 12 mg/mL, 12 mg/mL markedly greater effect than 6 mg/mL): dose dependent JS-K effect on epidermal thickness
toxicity, skin irritation, skin ulceration or infection with the treatments ([1]; topical JS-K 6 or 12 mg/mL in 200 uL acetone twice daily Day 1-2): no evidence of toxicity, skin irritation, skin ulceration, or infection
IC50 [2]: < 1 µM
